Measured values: US20100210561A1, “USE OF PEPTIDE AS A THERAPEUTIC AGENT” (priority 2007, published 2010)
Where no end group is shown, it is not given here. [ ]: non-standard residue; d: D form. The star is where a group is joined. tBu = CC(C)(C)*

Assays:
HIV-1IIIB = assay: HIV-1 antiviral assay in CEM-SS cells (MTS readout); conditions: positive controls
[1] = tested on: hepatitis B virus (HBV) ayw strain; assay: HBV assay in HepG2-2.2.15 cells (secreted HBV DNA, TaqMan PCR); type: cell-based; conditions: 10 micrograms per ml, six days, HBV DNA in supernatant
HCMV strain AD169 = assay: HCMV plaque formation assay in MRC-5 cells; type: cell-based, human cytomegalovirus; conditions: 10 micrograms per ml, 7-10 days
[2] = tested on: Tumor Necrosis Factor-α (TNF-α); assay: Th1/Th2 cytokine profiling assay: TNF-α; type: cell-based, Balb/c mice; conditions: Ovalbumin-restimulated spleen cells, 72 hours
Interferon-γ (IFN-γ) = assay: Th1/Th2 cytokine profiling assay: IFN-γ; type: cell-based, Balb/c mice; conditions: Ovalbumin-restimulated spleen cells, 72 hours
Interleukin-2 (IL-2) = assay: Th1/Th2 cytokine profiling assay: IL-2; type: cell-based, Balb/c mice; conditions: Ovalbumin-restimulated spleen cells, 72 hours
Interleukin-4 (IL-4) = assay: Th1/Th2 cytokine profiling assay: IL-4; type: cell-based, Balb/c mice; conditions: Ovalbumin-restimulated spleen cells, 72 hours
HUVEC = assay: Endothelial tube formation assay; type: cell-based, human; conditions: 10 micrograms per ml, 20 hours
Protocol: The endothelial tube formation assay is based on the ability of endothelial cells to form three-dimensional capillary-like tubular structures when cultured on a gel of basement membrane extract. […] Positive control was vehicle only. The endothelial cells were allowed to form tubes foe 20 hours and were then examined under an inverted fluorescent microscope. Duplicate wells for each treatment were photographed and quantitatevily analyzed for an average tubule length using image analysis software ImageProPlus. Raw data were expressed as average tubule lengths in pixels±standard deviation. Statistic p values were computed using the Student's t-test.

Compound	antiviral activity of positive control compounds (HIV-1IIIB)	inhibition of HBV replication as compared to the virus control infection [1]	inhibition of HCMV plaque formation as compared to the virus control experiment (HCMV strain AD169)	TNF-a spleen cells; TH1 response (% of control) [2]	induction of the production of TNF-alpha in murine spleen cells [2]	IFNγ spleen cells; TH1 response (% of control) (Interferon-γ (IFN-γ))	induction of the production of IFN-γ in murine spleen cells (Interferon-γ (IFN-γ))	IL-2 spleen cells (% of control) (Interleukin-2 (IL-2))	induction of the production of IL-2 in murine spleen cells (Interleukin-2 (IL-2))	IL-4 spleen cells; TH2 response (% of control) (Interleukin-4 (IL-4))	decrease of the production of IL-4 in murine spleen cells (Interleukin-4 (IL-4))	inhibition of the tube formation of human endothelial cells (HUVEC)
CC(C)(C)NC(=O)[C@@H]1CN(Cc2cccnc2)CCN1C[C@@H](O)C[C@@H](Cc1ccccc1)C(=O)N[C@H]1c2ccccc2C[C@H]1O [indinavir]	expected levels of antiviral activity	–	–	–	–	–	–	–	–	–	–	–
Cc1cn([C@H]2C[C@H](N=[N+]=[N-])[C@@H](CO)O2)c(=O)[nH]c1=O [AZT]	expected levels of antiviral activity	–	–	–	–	–	–	–	–	–	–	–
Y[dC](tBu)GFLT(tBu)-OH [Peptide 1]	–	24.2%	46.5%	123.7 % of control	23.7%	107.6 % of control	did not significantly change	115.0 % of control	did not significantly change	65.0 % of control	35.0%	4%
